Legend:
[1] = Pharmacokinetic study via oral administration in mice, plasma concentrations; assay type: in vivo, mice C57BL/6
Protocol: (§1) The pharmacokinetic study of the chemical compounds (C) following the oral administration thereof was conducted using mice C57BL/6 (January, 53940 The Genest Saint Isle, France). The chemical compounds derived from norbixin (C) were administered at a dose of 50 mg/kg of body weight. After administration, the blood was sampled at the tail at t=0.25 h; 0.5 h; 1 h; 3 h; 6 h and 8 h. The blood samples were centrifuged and the plasmas taken. The dosage of the plasma samples made it possible to determine pharmacokinetic parameters, namely Cmax, which corresponds to the maximum concentration observed after the administration of the molecule, Tmax which is the time required to reach maximum concentration after administration of the molecule and the AUC: the area under the curve which corresponds to the plasma exposure (FIG. 2).
(§2) The LC-MSMS analysis is carried out with a HPLC 1200 Infinity chain (Agilent Technologies, Santa-Clara, United States), a UV detector and a mass spectrometer QQQ6420 (Agilent Technologies Santa-Clara, United States). The injection volume is 5 μL. The chemical compounds C are eluted on an inverse phase column C18 (2.1*50 mm, particles 3 μm; Ace-C18-Excel, AIT) with a gradient of acetonitrile and water (containing 0.1% formic acid) and a flow rate of 0.3 mL/min. The conditions of the gradient can change according to the chemical compound C analyzed. The UV detector analyzes at 460 nm and the mass spectrometer analyzed in Mode MRM—Positive.
(§3) Table 2 discloses the pharmacokinetic results of the chemical compounds C following the administration p.o. 50 mg/kg in D-α-Tocopheryl polyethylene glycol 1000 succinate (VitE-TPGS) 20% in a sodium bicarbonate buffer (0.1M).

[2] = Pharmacokinetic study via oral administration in mice, ocular concentrations; assay type: in vivo, mice C57BL/6; settings: for Eye Exposure 50 mg/kg p.o. AUC: Table 3, repeats the eye exposure of Table 2; for Tmax: C57BL/6, mouse, eye, po
Protocol: as §1
In parallel, the ocular concentrations of the chemical compounds derived from norbixin (C) were dosed in the following way (FIG. 1): both eyes of each mouse were taken in Precellys tubes and stored at −80° C. until the time of dosing. The eyes are then ground in the Precellys tubes with a bench homogenizer, Fast-prep (Fischer Scientific, Hampton, United States) in a mixture of organic solvents, in a first step with 500 μL of chloroform/methanol (1/1, v/v) then 500 μL of chloroform/dichloromethane (1/1, v/v). The supernatants are recovered at each step and transferred to a 96-well plate of 2 mL.
For the quantification of the chemical compounds C, a calibration curve is carried out with 8 standards (5 to 5,000 ng/mL) in the same organic solvent mixtures and transferred (100 μL) to the 96-well plate of 2 mL.
The supernatants and standards are evaporated in a EZ2 (Genevac, Ipswich, United Kingdom), without heating, then taken with 100 μL of DMSO/methanol (20:80, v/v) before being transferred to a 96-well plate of 200 μL.
as §2, §3

[3] = tested on: primary cultures of RPE of adult pigs; settings: 24 h after exposure; Fontaine et al. (2016); cited from earlier work
[4] = tested on: primary cultures of RPE of adult pigs; test: In vitro photoprotection of RPE cells illuminated with blue light in the presence of A2E; assay type: cell-based, pig; settings: A2E 30 μM, survival 24 h after illumination; for viability at 5 µM / viability at 10 µM / viability at 20 µM: Sus scrofa, RPE
Description: In addition to better distribution in the target-tissue, selecting new compounds must also be based on good photo-protective activity that limits the loss of the cells of the RPE and thus reducing the retinal degeneration observed during the AMD and other degenerative diseases such as Retinitis pigmentosa and Stargardt's disease. At the cellular level, on cultures of cells the RPE coming from pig retina, Fontaine et al. (2016) have shown that a treatment with norbixin (BIO201) protects the cells of the RPE against apoptosis following an illumination in the presence of A2E (80% survival 24 h after exposure). This same screening test according to the percentage of photoprotection was used so as to determine its modulation by and the chemical compounds derived from norbixin (C) object of the present invention in comparison with the photo-protective effect of norbixin and characterize these modulations from a statical standpoint.
The test in vitro described hereinabove and intended to study the photo-protective effect of norbixin was used so as to quantify the photo-protective effects of the various chemical compounds derived from norbixin (C) on the cells of the RPE illuminated with blue light in the presence of A2E (FIG. 3). The photo-protective effect of the molecules was evaluated in a phototoxicity cellular model induced by treatment by A2E followed by an illumination with blue light. The term “blue radiation” means the radiation corresponding to the blue band of the visible light spectrum, i.e. of a wavelength comprised between 435 and 490 nm. This model uses primary cultures of RPE of adult pigs. The cell survival is quantified thanks to a test of cellular viability. At −48 h the compounds to be tested (in solution at 5 mM in the DMSO) are added to obtain the final concentrations of 1 to 20 μM) then at −19 h of the A2E (final concentration 30 μM) and the cells (time 0 h) are illuminated. 24 h after the survival of the cells is measured. The acquisition of images, as well as the processing thereof, are carried out using a fluorescence microscope controlled by the Metamorph software and a dedicated quantification program. The experiments are conducted on a 96-well microplate in quadruplicate and the experiment is reproduced at least four times. The results are expressed in the form of a ratio representing the number of living cells in the wells treated by the molecules to be tested, divided by the number of living cells in the controlled wells (treated by the dilution medium without A2E). This test made it possible hereinabove to reveal the photo-protective activity of norbixin (Fontaine et al. 2016).

[5] = mice, p.o. 50 mg/kg in VitE-TPGS 20% in sodium bicarbonate buffer (0.1M)
[6] = C57BL/6, mouse, in vivo, po, 50 mg/kg

Structure (SMILES) | Plasma CMax [1, 5] | Plasma TMax [1, 5] | Plasma Exposure ([1]; mice, p.o. 50 mg/kg in VitE-TPGS 20% in sodium bicarbonate buffer (0.1M), area under the curve) | Eye Exposure 50 mg/kg p.o. AUC [2] | Eye CMax [2, 5] | Eye TMax [2, 5] | survival of RPE cells after illumination in the presence of A2E [3] | Photoprotection (%) 5 μM Mean ([4]; 5 μM compound) | Photoprotection (%) 10 μM Mean ([4]; 10 μM compound) | Photoprotection (%) 20 μM Mean ([4]; 20 μM compound) | Cmax [1, 6] | Plasma Exposure [1, 6] | Tmax [1, 6] | Tmax [2, 5] | viability at 5 µM ([4]; 5 μM compound) | viability at 10 µM ([4]; 10 μM compound) | viability at 20 µM ([4]; 20 μM compound)
CC(/C=C/C=C(C)/C=C/C(=O)O)=C\C=C\C=C(C)\C=C\C=C(C)\C=C\C(=O)O [BIO201, 6,6′-diapocarotene-6,6′-dioate, reference compound] | 34.99 µg/mL | 0.25 h | 100.7 µg·h/mL | 22.4 ng · h/eye | 8.6 ng/eye | 0.5 h | 80% | 19.2% | 34.1% | 63.6% | – | – | – | – | – | – | –
CCOCC1CCN(C(=O)/C=C/C(C)=C/C=C/C(C)=C/C=C/C=C(C)/C=C/C=C(C)\C=C\C(=O)O)CC1 [C23, 1-[4-ethylmethoxypiperidinamido](2E,4E,6E,8E,10E,12E,14E,16Z,18E)-4,8,13,17-tetramethylicosa-2,4,6,8,10,12,14,16,18-nonaenedioate] | – | – | – | 54.7 ng · h/eye | 11 ng/eye | – | – | – | – | – | 5010 ng/mL | 24.1 µg·h/mL | 1 h | 2 h | 38.4% | 59.2% | 73.1%
COC1CCN(C(=O)/C=C/C(C)=C/C=C/C(C)=C/C=C/C=C(C)/C=C/C=C(C)\C=C\C(=O)O)CC1 [C24, 1-[4-methoxypiperidinamido](2E,4E,6E,8E,10E,12E,14E,16Z,18E)-4,8,13,17-tetramethylicosa-2,4,6,8,10,12,14,16,18-nonaenedioate] | – | – | – | 499.1 ng · h/eye | 96 ng/eye | – | – | – | – | – | 48300 ng/mL | 141.9 µg·h/mL | 0.5 h | 1.5 h | 47% | 69% | 84%
